Drawing on ChEMBL document CHEMBL1158299, “Effects on cultured neonatal mouse calvaria of the flavonoids isolated from Boerhaavia repens” (1996), this text covers Activity and inhibition for three compounds.

Details in all cases: Bone element
Assay [1] concerns Bone. Description: Inhibition of PTH-induced bone resorption in mouse parietal bone culture assessed as 45Ca2 release into culture medium at 200 uM by liquid scintillation counting. It is filed as functional, tissue-based.
Assay [2] has as its system Bone. Description: Inhibition of PTH-induced bone resorption in mouse parietal bone culture assessed as 45Ca2 release into culture medium at 200 uM after 4 to 6 days by liquid scintillation counting. It is filed as functional.
The test system of assay [3] is Bone. The assay is described as follows: Inhibition of bone resorption in mouse parietal bone culture assessed as 45Ca2 release into culture medium at 200 uM after 0 to 3 days by liquid scintillation counting. The format is functional.
Assay [4] concerns Bone. The assay is described as follows: Inhibition of bone resorption in mouse parietal bone culture assessed as 45Ca2 release into culture medium at 200 uM after 4 to 6 days by liquid scintillation counting. It is filed as functional.

Active and inactive are the calls of the source. The rule behind the calls is not given here.

Broadly, the inhibition is how much of the control response was suppressed.

`COc1c(O)cc2oc(-c3ccc(O)cc3)c(O[C@@H]3O[C@H](CO[C@@H]4O[C@@H](C)[C@H](O)[C@@H](O)[C@H]4O)[C@H](O)[C@H](O)[C@H]3O)c(=O)c2c1O`: the result in the assay with Bone [1] was inactive.

Take `COc1cc2oc(-c3ccc(O)cc3)c(O[C@@H]3O[C@H](CO)[C@H](O)[C@H](O)[C@H]3O)c(=O)c2c(O)c1OC`: the inhibition at 200 µM in the assay on Bone [2] was determined as 55.3%; in the assay with Bone [3] it was 20.6%; with Bone [4], 23.1%.

As for `COc1cc2oc(-c3ccc(O)cc3)c(O[C@@H]3O[C@H](CO)[C@@H](O)[C@H](O)[C@H]3O[C@@H]3O[C@H](CO)[C@H](O)[C@H](O)[C@H]3O)c(=O)c2c(O)c1OC`, the inhibition at 200 µM in the assay with Bone [2] turned out to be 60.3%; with Bone [3], 29.1%; with Bone [4] it was 38%.
